Experimental data from ChEMBL document CHEMBL5226288, “A perspective on medicinal chemistry approaches towards adenomatous polyposis coli and Wnt signal based colorectal cancer inhibitors” (Eur J Med Chem, 2021).

What was measured:
[1] = test system: SW480; assay: Anticancer activity against human SW480 cells assessed as reduction in cell growth incubated for 72 hrs by MTT assay; format: functional, cell-based; settings: SW480, 72 h
[2] = test system: DLD-1; assay: Anticancer activity against human DLD-1 cells assessed as reduction in cell growth incubated for 72 hrs by MTT assay; format: functional, cell-based; settings: DLD-1, 72 h
[3] = test system: HCT-116; assay: Anticancer activity against human HCT-116 cells assessed as reduction in cell growth incubated for 72 hrs by MTT assay; format: functional, cell-based; settings: HCT-116, 72 h
[4] = test system: HCT-116; assay: Antiproliferative activity against human HCT-116 cells assessed as reduction in cell viability incubated for 48 hrs by MTT assay; format: functional, cell-based; settings: time 48 hrs
[5] = Inhibition of APC/ASEF (unknown origin) protein protein interaction incubated for 2 hrs by fluorescence polarization analysis; design: species or system Homo sapiens
[6] = test system: HCT-116; assay: Cytotoxicity in human HCT-116 cells expressing wild type APC assessed as reduction in cell viability incubated for 96 hrs by Cell Titer-Glo assay; format: functional, cell-based; settings: HCT-116, 96 h
[7] = test system: DLD-1; assay: Cytotoxicity in human DLD-1 cells expressing APC mutant assessed as reduction in cell viability incubated for 96 hrs by Cell Titer-Glo assay; format: functional, cell-based; settings: DLD-1, 96 h
[8] = test system: SW480; assay: Antiproliferative activity against human SW480 cells assessed as reduction in cell viability; format: functional, cell-based
[9] = test system: HCT-116; assay: Antiproliferative activity against human HCT-116 cells assessed as reduction in cell viability; format: functional, cell-based
[10] = test system: DLD-1; assay: Anticancer activity against human DLD1 cells expressing APC mutant assessed as reduction in cell viability by dual-glo luciferase assay; format: functional, cell-based
[11] = test system: SW480; assay: Antiproliferative activity against human SW480 cells assessed as reduction in cell proliferation incubated for 24 hrs by MTT assay; format: functional, cell-based; settings: SW480, 24 h
[12] = test system: HCT-116; assay: Antiproliferative activity against human HCT-116 cells assessed as reduction in cell proliferation incubated for 24 hrs by MTT assay; format: functional, cell-based; settings: HCT-116, 24 h
[13] = test system: SW480; assay: Anticancer activity against human SW480 cells assessed as reduction in cell viability; format: functional, cell-based
[14] = test system: DLD-1; assay: Anticancer activity against human DLD-1 cells assessed as reduction in cell viability; format: functional, cell-based
[15] = test system: SW480; assay: Antiproliferative activity against human SW480 cells assessed as reduction in cell viability incubated for 72 hrs by MTT assay; format: functional, cell-based; settings: SW480, 72 h
[16] = test system: HCT-116; assay: Anticancer activity against human HCT-116 cells assessed as decrease in cell growth incubated for 72 hrs by tryphan blue staining based cell counter analysis; format: functional; settings: HCT-116, 72 h
[17] = test system: SW480; assay: Anticancer activity against human SW480 cells assessed as decrease in cell growth incubated for 72 hrs by tryphan blue staining based cell counter analysis; format: functional; settings: SW480, 72 h
[18] = test system: SW480; assay: Antiproliferative activity against human SW480 cells assessed as reduction in cell proliferation; format: functional, cell-based
[19] = test system: DLD-1; assay: Antiproliferative activity against human DLD-1 cells assessed as reduction in cell proliferation; format: functional, cell-based
[20] = test system: LoVo; assay: Antiproliferative activity against human LoVo cells assessed as decrease in cell viability by MTT assay; format: functional, cell-based

Question: What does the source list for `O=C(/C=C/C=C/c1ccc2c(c1)OCO2)N1CCCCC1` [PIPERINE]?
Answer: IC50 [1]: < 200 µM; IC50 [2]: < 200 µM; IC50 [3]: < 200 µM

Question: Which results are given for `COc1cccc(C2=NN(c3ccc(C(=O)Nc4cc(C(F)(F)F)cc(C(F)(F)F)c4)cc3)C(c3ccc4c(ccn4C)c3)C2)c1` (stereo not drawn)?
Answer: IC50 [4]: 1.37 µM; IC50 [5]: 1.02 µM

Question: Which IC50 [6] does the source give for `CC[C@H](C)C(=O)O[C@H]1CCC=C2C=C[C@H](C)[C@H](CC[C@@H]3C[C@@H](O)CC(=O)O3)[C@H]21` [MEVASTATIN] here?
Answer: 18.6 µM

Question: And the IC50 [7]?
Answer: 3.2 µM

Question: Which results are given for `CC(C)=CCc1c(O)ccc(C(=O)/C=C/c2ccc(O)cc2)c1O` [ISOBAVACHALCONE]?
Answer: IC50 [8]: 44.1 µM; IC50 [9]: 75.5 µM

Question: For `CCN(C(=O)C1CCN(S(=O)(=O)c2cc(Br)cc3c2N(C(C)=O)CC3)CC1)c1cccc(C)c1`, which IC50 [10] is on record?
Answer: 0.9 µM

Question: Which IC50 [11] does the source give for `CC1(C)C=Cc2c(ccc(C(=O)/C=C/c3ccccc3)c2O)O1` [LONCHOCARPIN] here?
Answer: 20 µM

Question: And the IC50 [12]?
Answer: 20 µM

Question: For `S=C=NCCc1ccccc1` [PHENETHYLISOTHIOCYANATE], which IC50 [13] is on record?
Answer: 35.6 µM

Question: What about the IC50 [14] of the same molecule?
Answer: 54.6 µM

Question: Which IC50 [15] does the source give for `C=C1C(=O)[C@]23CC[C@H]1C[C@H]2[C@@]12CCC[C@@](C)(COC1=O)[C@H]2C[C@H]3O` here?
Answer: 1.7 µM

Question: What does the source list for `COc1cc(C2Oc3cc([C@H]4Oc5cc(O)cc(O)c5C(=O)[C@@H]4O)ccc3OC2CO)ccc1O` (stereo partly drawn) [SILIBININ]?
Answer: IC50 [16]: 50 µM; IC50 [17]: 50 µM

Question: With `CC(=O)N(O)CCCCCNC(=O)CCC(=O)N(O)CCCCCNC(=O)CCC(=O)N(O)CCCCCN` [DEFEROXAMINE] as the molecule, how does the IC50 [18] read?
Answer: 3.8 µM

Question: And the IC50 [19]?
Answer: 2.9 µM

Question: With `NS(=O)(=O)c1ccc(NC(=S)N2CCN(C/C=C/c3ccccc3)CC2)cc1` as the molecule, how does the IC50 [14] read?
Answer: 0.018 µM

Question: With `O=C(O)c1ccc(-n2nc(-c3ccccc3O)nc2-c2ccccc2O)cc1` [DEFERASIROX] as the molecule, how does the IC50 [18] read?
Answer: 3.9 µM

Question: And the IC50 [19]?
Answer: 3.4 µM

Question: With `Oc1ccc(/C=C/c2cc(O)cc(O)c2)cc1` [RESVERATROL] as the molecule, how does the IC50 [20] read?
Answer: 55 µM
